In patent US20180051017A1, “AGENT FOR TREATMENT OF SCHIZOPHRENIA” (Sumitomo Dainippon Pharma Co., Ltd., priority 2002, published 2018):
Where a name gives a salt, the structure may show the parent alone.

Tested on: patients with schizophrenia in the acute exacerbation phase
Assay: First stage phase II clinical trial, placebo-controlled double-blind: efficacy (BPRS, PANSS, CGI-S/I)
Assay type: in vivo, human
Description: According to the procedures as shown in Table 1 as described below, the placebo-controlled double blind experiment was done on 149 patients with schizophrenia in the acute exacerbation phase at 15 facilities in USA. The efficacy and safeness were studied when SM-13496 at a dose of 40 mg or 120 mg, or a placebo was orally administered once a day for 6 weeks after placebo washout.

O=C1[C@@H]2[C@@H]3CC[C@@H](C3)[C@@H]2C(=O)N1C[C@@H]1CCCC[C@H]1CN1CCN(c2nsc3ccccc23)CC1 [SM-13496, (1R,2S,3R,4S)-N-[(1R,2R)-2-[4-(1,2-benzoisothiazol-3-yl)-1-piperazinyl-methyl]-1-cyclohexylmethyl]-2,3-bicyclo[2.2.1]heptanedicarboximide hydrochloride]
Reductions in BPRS, CGI-I and CGI-S scores at end of trial compared to placebo (40 mg or 120 mg, 6 weeks after the administration): statistically significant | Responder (BPRS reduction 20% or more, or CGI-I 1 or 2), Number (40 mg orally once a day for 6 weeks, 47 subjects, p 0.002 vs placebo): 26 | BPRS Total Score, change from before administration at end of trial (LOCF), Average (SD) (40 mg orally once a day for 6 weeks, 47 subjects, p 0.014 vs placebo): −10.0 | PANSS Total Score, change from before administration at end of trial (LOCF), Average (SD) (40 mg orally once a day for 6 weeks, 47 subjects, p 0.063 vs placebo): −14.1 | CGI-I at end of trial, Average (SD) (40 mg orally once a day for 6 weeks, n = 47, p 0.013 vs placebo): 3.2 (1.56) | Ratio of responders compared to placebo (40 mg- or 120 mg-treated group): statistically significant difference | BPRS Total Score, change from before administration at end of trial (LOCF), Average (SD) (120 mg orally once a day for 6 weeks, 44 subjects, p 0.003 vs placebo): −11.3 (8.89) | Responder (BPRS reduction 20% or more, or CGI-I 1 or 2), Number (120 mg orally once a day for 6 weeks, 44 subjects, p 0.007 vs placebo): 22 | PANSS Total Score, change from before administration at end of trial (LOCF), Average (SD) (120 mg orally once a day for 6 weeks, 44 subjects, p 0.010 vs placebo): −17.4 (15.70) | CGI-I at end of trial, Average (SD) (120 mg orally once a day for 6 weeks, n = 42, p 0.005 vs placebo): 3.0 (1.29) | Reduction in PANSS score at end of experiment compared to placebo (120 mg, 6 weeks): statistically significant | BPRS total score (LOCF) change with time compared to placebo (FIG. 1) (SM-13496-treated groups, at 2 weeks or later, p<0.05): statistically significantly reduced
